Key:
KDM1A = assay: Ex vivo KDM1A target engagement in rat brain and PBMCs; set-up: species or system Sprague-Dawley rats
Method: . Native protein extracts of cells or tissues were obtained in presence of 25 nM OG-881 chemoprobe according the protocol described in Mascaró et al..
Luminescent ELISA: for quantification of total amount of KDM1A protein (TOTAL KDM1A), Luminunc Plates Maxisorp (NUNC; #436110) were coated with a monoclonal anti-KDM1A antibody (Abcam; #ab53269) at 2 µg/mL in PBS. For quantification of the fraction not bound to inhibitor (FREE KDM1A), plates were coated with streptavidin (Promega Biotech Ibérica; #Z7041) at 10 µg/mL in PBS. Coating was performed at 4°C O/N. Wells were washed 3 times in PBS, 0.1% Tween-20 and blocked with PBS-BSA 1% (Sigma; #A3059) for 2 hr. A KDM1A calibration curve of full length rKDM1A (Active Motif; #31334) diluted in PBS was included in each plate. Plates were then incubated 1 hr at RT and washed 5 times. […] Plates were centrifuged during 30 sec to 1,500 x g, shaken for 1 min at 100rpm and incubated inside the micropate reader (Infinite 200, Tecan) for 3 min at 25 °C. The relative luminescence units (RLU) readouts were acquired using a 1000 msec integration time and 150 msec settle time.
. […] After raw data processing (robust elimination of outliers according to Grubbs criteria and subtraction of blank signal on technical replicates), the target engagement was calculated as […]

[1] = tested on: ER (non-selective) (h) (agonist radioligand); assay: CEREP Diversity Panel; format: binding, human; set-up: dose or concentration left out as unconfirmed
Method: (§1) […]. MAO-A inhibition at 10 μM was 37%, in line with internal data.

[2] = tested on: AR (h) (agonist radioligand); assay: CEREP Diversity Panel; format: binding, human; set-up: dose or concentration left out as unconfirmed
Method: as §1

THP-1 cells = assay: FACS based CD11B induction assay in THP-1; format: cell-based; conditions: Homo sapiens; THP-1, 96 hr; read-out: EC50 induction of differentiation marker CD11B
Method: Human leukemic THP1 (ACC-16) cells ([…]) were obtained from DMSZ and maintained in RPMI 1640 medium (Cat# R0883; Sigma Aldrich) supplemented with 10 % heat inactivated fetal bovine serum (FBS; Cat# F9665; Sigma-Aldrich) and 2 mM Glutamine (Cat# X0550 Biowest).
THP-1 cells are acute leukemia cells with blast phenotype that can be induced to differentiate into a monocyte/macrophage phenotype by cell penetrant KDM1A inhibitors. Differentiation can be followed by measurement of induction of differentiation surface markers like CD11B. Cells were treated for 96 hr with KDM1A inhibitors. Fluorescent assisted cell sorting (FACS) analysis of CD11B expression was performed on 1.5 x 10^5 THP-1 cells (obtained from German Collection of microorganism and Cell Cultures; ACC-16) using a phycoerythrin-conjugated human CD11B-specific mouse monoclonal antibody (eBiosciences, #12-0118) at dilution 1:5 on a cytomics FC500 (Beckman Coulter) with FlowJo software. The mouse IgG1 K isotype (eBiosciences, #12-4714) was used as a control antibody. Concentration-response curves were determined out by assaying inhibitors at concentrations ranging between 0.32 and 200 nM.

platelet (PLT) levels = assay: Rat pharmacodynamics: hematology, 5 day treatment and recovery
Source text: KDM1A is involved in hematopoiesis, and it is well known that KDM1A knockdown or KDM1A inhibitors can halt hematopoiesis when administered at sufficiently high doses and during sufficient time^(39). […] Data from N = 6 rats are represented as mean ± SEM.
Male Wistar rats (N = 3 or 6 per dose level) of 10-12 weeks of age were maintained in air and temperature controlled cages with regular supply of water and food. A maximum of […] were raised. Before first administration, the animals were marked on the tail for identification. […] Animal of each treatment group were sampled for blood on days 1, 3, 5, 8, 10, 12, 15, 17 and 19. Blood samples of days 1, 3 and 5 were obtained just one hr after the compound administration. Blood samples were obtained from leg saphenous vein using recipients treated with EDTA to avoid coagulation. The last day of the study, rats were euthanized under CO2 saturated atmosphere and blood was extracted by cardiac puncture and collected in recipients containing EDTA.
Blood samples obtained from leg saphenous vein or cardiac puncture were analyzed on a Diatron hematology analyzer at SEA (Plataforma Recerca Aplicada Animal de Laboratori, Parc Científic de Barcelona).
Hematology parameters were calculated as mean ± SEM and represented as a timecourse.

[3] = tested on: isolated Sprague-Dawley rats; assay: Elevated Plus Maze, rat isolation rearing model; format: in vivo; conditions: 0.16 or 0.48 mg/kg/day in drinking water, approximately 1 month
Method: Sprague Dawley Rats: Right after the weaning (post natal day 21-23), 72 Sprague-Dawley male rats (Charles River, bred in the UAB Animal facility) were divided in two groups: Control (N = 18), maintained 3-4 animals per cage; Isolated (N = 54), 1 animal per cage ([…] 1291H Eurostandard type III with ECOPURE CHIPS 6 bedding material, Harlan). Animals were maintained at 21 ± 2 °C controlled temperature in a 12 hr light / dark cycle (lights on at 8:00 am) with ad libitum access to food (2014 TEKLAD, Harlan) and water. […] Control animals were treated with vehicle. The administration route was drinking water and the vehicle 1.8% 2-Hydroxypropyl-b-cyclodextrin. Drug concentration was adjusted weekly by body weight and water consumption. During the last week of treatment, all animals were tested in the EPM and, on a different day, in the RI test (N = 12 / group). […]
The EPM consisted of four arms at right angles to each other connected to a central square and maintained elevated 50 cm above the floor. […] The animal was placed facing a closed arm, and its movements were video-recorded for 5 min and analyzed by video-tracking using SMART® (v3.0, PanLab, SLU, Spain).
Elevated Plus Maze (EPM): Movements were video-recorded for 5 min and analyzed by video-tracking using SMART® (v3.0, PanLab, SLU, Spain).

Nc1nnc(CN[C@@H]2C[C@H]2c2ccc(OCc3ccccc3)cc2)o1 [ORY-2001, vafidemstat]
time for brain target engagement levels to return to baseline (KDM1A; S2B Fig): ~ 3 days
time to maximum target engagement (KDM1A; rat PBMCs and brain, days of administration): 5 days
% inhibition [1]: 13%
% inhibition [2]: -2%
EC50 (THP-1 cells): 21 nM
dose limiting toxicity in 5 day MTD studies (platelet (PLT) levels; hematopoietic impact): reversible and dose dependent impact on platelets
maximum PLT rebound (platelet (PLT) levels; rats, 5 day treatment, 14 day recuperation): ~12 days
EC50 of PLT reduction (platelet (PLT) levels; rats, p.o. gavage, 5 day treatment): ~ 0.5 mg/kg
anxiety and locomotor activity in the EPM [3]: did not produce any significant effect on anxiety or locomotor activity

From publication PMC7259601 (PLoS ONE, 2020)
